# According to US20210290598A1, “MEDICAMENT USEFUL FOR CARDIOVASCULAR DISEASE” (NATIONAL UNIVERSITY CORPORATION OKAYAMA UNIVERSITY, priority 2018, published 2021):
# Legend:
# Format in all cases: in vivo, rat
# Dahl salt-sensitive rats [1] = experiment: Blood pressure in Dahl salt-sensitive rats on high-salt high-fat diet; conditions: for mean blood pressure: 12 weeks after start, mean±standard deviation, pemafibrate 0.5 mg/kg/day, pitavastatin 0.3 mg/kg/day, salt-containing HFD, control 193.6±6.6; for change in blood pressure compared with control group: 12 weeks, analysis of variance/Bonferroni
# Description: (§1) Drug efficacy was evaluated on Dahl salt-sensitive rats (Dahl-Iwai S, 7 weeks old, Japan SLC, Inc.) fed on a 8% salt-containing HFD (High Fat Diet: 29.4% fat content, CLEA Japan, Inc.) (4 groups in total: (1) control group, (2) pemafibrate (0.5 mg/kg/day) single-agent administration group, (3) pitavastatin (0.3 mg/kg/day) single-agent administration group, and (4) pemafibrate (0.5 mg/kg/day)+pitavastatin (0.3 mg/kg/day) combined administration group, with 10 animals for each group). Twelve weeks after the start of administration, the animals were euthanized after measuring their blood pressure, and the weight of the isolated hearts and the endothelial function of the isolated thoracic aortas were measured with a Magnus apparatus. The measurement with the Magnus apparatus was performed according to the standard method. That is, a ring preparation of the isolated thoracic aorta was prepared, suspended in a Magnus tube in Krebs-Henseleit solution, loaded with a tension of 1 g, and constricted with 0.3 μM phenylephrine. Then, acetylcholine (10^−9 to 10^−5 M) was added cumulatively, and the relaxation response was measured. Finally, […] was obtained with 100 μM papaverine, and the relaxation rate was evaluated. When measuring with the Magnus apparatus, the blood vessels of normal rats were also evaluated in addition to the four groups, and were used as a control group. In addition, the expression level of phosphorylated endothelial nitric oxide synthase (phospho-eNOS) was evaluated by Western blotting according to the standard method, using the isolated aortas.
# [2] = tested on: phosphorylated endothelial nitric oxide synthase (phospho-eNOS); experiment: Expression level of phospho-eNOS in isolated aortas by Western blotting; conditions: 12 weeks dosing
# Description: as §1, with “That is, a ring preparation of the isolated thoracic aorta was prepared, suspended in a Magnus tube in Krebs-Henseleit solution, loaded with a tension of 1 g, and constricted with 0.3 μM phenylephrine.” left out
# Dahl salt-sensitive rats [3] = experiment: Weight of isolated hearts of Dahl salt-sensitive rats on high-salt high-fat diet; conditions: for heart weight: 12 weeks after start, mean±standard deviation, pemafibrate 0.5 mg/kg/day, pitavastatin 0.3 mg/kg/day, salt-containing HFD, control 1.74±0.1; for change in heart weight compared with control group: 12 weeks, analysis of variance/Bonferroni
# Description: as §1
# [4] = tested on: isolated thoracic aorta of Dahl salt-sensitive rats; experiment: Endothelial function of isolated thoracic aorta, Magnus apparatus, acetylcholine relaxation response; conditions: 12 weeks dosing; aorta ring constricted with 0.3 μM phenylephrine, cumulative acetylcholine; mixed effect model, Bonferroni
# Description: as §1, with “That is, a ring preparation of the isolated thoracic aorta was prepared, suspended in a Magnus tube in Krebs-Henseleit solution, loaded with a tension of 1 g, and constricted with 0.3 μM phenylephrine.” left out
Compound,mean blood pressure (Dahl salt-sensitive rats [1]) [mmHg],change in blood pressure compared with control group (Dahl salt-sensitive rats [1]),expression level of phospho-eNOS compared to control group [2],heart weight (Dahl salt-sensitive rats [3]) [g],change in heart weight compared with control group (Dahl salt-sensitive rats [3]),vasodilatory responsiveness as a whole compared with control group [4]
"CC[C@@H](Oc1cccc(CN(CCCOc2ccc(OC)cc2)c2nc3ccccc3o2)c1)C(=O)O [pemafibrate, (2R)-2-[3-({1,3-benzoxazol-2-yl[3-(4-methoxyphenoxy)propyl]amino}methyl)phenoxy]butanoic acid]",192.6±8.3,no change was observed,tendency to increase,1.48 ± 0.1,significantly lower than that of the control,showed a trend toward improvement in vasodilatory responsiveness
O=C(O)C[C@H](O)C[C@H](O)/C=C/c1c(C2CC2)nc2ccccc2c1-c1ccc(F)cc1 [pitavastatin],196.9±8.4,no change was observed,tendency to increase,1.76 ± 0.2,no change compared to the control,showed a trend toward improvement in vasodilatory responsiveness
